The experiment deals with BDF1 mice, B16 melanoma ip, median survival T/C. In words: NCI In Vivo Anticancer Drug Screen. Data for tumor model B16 Melanoma (intraperitoneal) in B6D2F1 (BDF1) mice. To be noted: endpoint: median survival time, higher = longer survival. Summed up:
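Compounds were tested in mice carrying transplantable tumors. Survival or tumor size was recorded, and each value is the treated-group measurement (T) divided by that of the vehicle-treated control group (C).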

[1] abbreviates: dose: 25.0 mg/kg/injection, schedule: Q01DX009 (ip), vehicle: saline with Tween-80.
The mark [2] stands for this setting: dose: 50.0 mg/kg/injection, schedule: Q01DX009 (ip), vehicle: saline with Tween-80.
Setting [3] is: dose: 400.0 mg/kg/injection, schedule: Q01DX009 (ip), vehicle: saline with Tween-80.
The mark [4] stands for this setting: dose: 100.0 mg/kg/injection, schedule: Q01DX009 (ip), vehicle: Klucel (hydroxypropylcellulose) (HPC).
Where [5] appears, read: dose: 200.0 mg/kg/injection, schedule: Q01DX009 (ip), vehicle: Klucel (hydroxypropylcellulose) (HPC).
The mark [6] stands for this setting: dose: 400.0 mg/kg/injection, schedule: Q01DX009 (ip), vehicle: Klucel (hydroxypropylcellulose) (HPC).

“And” between values parts separate entries of the source, which are not always exact repeats. Equal values may be shown once. Inconclusive results and toxic doses are left out.

As to `CC1CN1P(=S)(Oc1ccccc1)N1CC1C` (stereo not drawn), the T/C is, setting by setting: under setting [1], 97 % of control; under setting [2], 95 % of control; (dose: 100.0 mg/kg/injection, schedule: Q01DX009 (ip), vehicle: saline with Tween-80) 93 % of control and 97 % of control; under setting [3], 100 % of control.
For the compound `COc1ccc(NC(=O)c2cccc(C(=O)Nc3ccc(OC)cc3)c2)cc1`, the T/C was 102 % of control under setting [4], 108 % of control under setting [5] and 102 % of control under setting [6].
On to `NC(=S)N/N=C/c1ccc(OC(F)(F)F)cn1`, for which the T/C reads like this: (dose: 1.56 mg/kg/injection, schedule: Q01DX009 (ip), vehicle: saline with Tween-80) 92 % of control; (dose: 3.13 mg/kg/injection, schedule: Q01DX009 (ip), vehicle: saline with Tween-80) 94 % of control; (dose: 6.25 mg/kg/injection, schedule: Q01DX009 (ip), vehicle: saline with Tween-80) 89 % of control; (dose: 12.5 mg/kg/injection, schedule: Q01DX009 (ip), vehicle: saline with Tween-80) 95 % of control.
On to `O=CNC(c1ccccc1)(c1ccccc1)c1ccccc1`, for which the T/C was 97 % of control under setting [4], 94 % of control under setting [5] and 94 % of control under setting [6].
As to `ClC1C(Cl)C(Cl)C(Cl)C(Cl)C1Cl` (stereo not drawn), the T/C by setting is: (dose: 25.0 mg/kg/injection, schedule: Q01DX009 (ip), vehicle: Klucel (hydroxypropylcellulose) (HPC)) 95 % of control; under setting [1], 100 % of control; (dose: 50.0 mg/kg/injection, schedule: Q01DX009 (ip), vehicle: Klucel (hydroxypropylcellulose) (HPC)) 105 % of control; under setting [2], 99 % of control; under setting [4], 93 % of control; under setting [5], 93 % of control. Moreover, the T/C runs as follows: (dose: 200.0 mg/kg/injection, schedule: Q01DX009 (ip), vehicle: saline with Tween-80) 96 % of control; under setting [3], 89 % of control.
As for `CCC1(O)CC2CN(CCc3c([nH]c4ccccc34)C(C(=O)OC)(c3cc4c(cc3OC)N(C)C3C(O)(C(=O)NCCO)C(O)C5(CC)C=CCN6CCC43C65)C2)C1` (stereo not drawn), the T/C reads like this: (dose: 0.2 mg/kg/injection, schedule: Q01DX009 (ip), vehicle: saline) 164 % of control; (dose: 0.22 mg/kg/injection, schedule: Q01DX009 (ip), vehicle: water) 121 % of control; (dose: 0.36 mg/kg/injection, schedule: Q01DX009 (ip), vehicle: water) 162 % of control; (dose: 0.4 mg/kg/injection, schedule: Q01DX009 (ip), vehicle: saline) 191 % of control; (dose: 0.6 mg/kg/injection, schedule: Q01DX009 (ip), vehicle: water) 161 % of control; (dose: 0.8 mg/kg/injection, schedule: Q01DX009 (ip), vehicle: saline) 218 % of control. Also, the T/C is 155 % of control (dose: 1.0 mg/kg/injection, schedule: Q04DX003 (ip), vehicle: saline); 121 % of control (dose: 1.04 mg/kg/injection, schedule: Q01DX001 (ip), vehicle: water); 155 % of control and 179 % of control (dose: 1.44 mg/kg/injection, schedule: Q04DX003 (ip), vehicle: water); 161 % of control (dose: 1.67 mg/kg/injection, schedule: Q04DX003 (ip), vehicle: saline); 155 % of control and 206 % of control (dose: 2.4 mg/kg/injection, schedule: Q04DX003 (ip), vehicle: water); 122 % of control (dose: 2.9 mg/kg/injection, schedule: Q01DX001 (ip), vehicle: water). Besides, the T/C is 87 % of control (dose: 4.0 mg/kg/injection, schedule: Q04DX003 (ip), vehicle: water); 163 % of control (dose: 648.0 micrograms/kg/injection, schedule: Q04DX003 (ip), vehicle: saline); 167 % of control (dose: 1080.0 micrograms/kg/injection, schedule: Q04DX003 (ip), vehicle: saline); 156 % of control and 182 % of control (dose: 1800.0 micrograms/kg/injection, schedule: Q04DX003 (ip), vehicle: saline); 166 % of control and 179 % of control (dose: 3000.0 micrograms/kg/injection, schedule: Q04DX003 (ip), vehicle: saline).
Turning to `COc1cccc(CN2CCCNCC2)c1`, the T/C is, setting by setting: (dose: 6.25 mg/kg/injection, schedule: Q01DX009 (ip), vehicle: water) 102 % of control; (dose: 12.5 mg/kg/injection, schedule: Q01DX009 (ip), vehicle: water) 115 % of control; (dose: 25.0 mg/kg/injection, schedule: Q01DX009 (ip), vehicle: water) 114 % of control; (dose: 50.0 mg/kg/injection, schedule: Q01DX009 (ip), vehicle: water) 100 % of control.
Take `O=NN(CCF)C(=O)NCCO`: the T/C is, setting by setting: (dose: 1.88 mg/kg/injection, schedule: Q01DX001 (ip), vehicle: saline) 115 % of control; (dose: 3.75 mg/kg/injection, schedule: Q01DX001 (ip), vehicle: saline) 114 % of control; (dose: 15.0 mg/kg/injection, schedule: Q01DX001 (ip), vehicle: saline) 172 % of control; (dose: 30.0 mg/kg/injection, schedule: Q01DX001 (ip), vehicle: saline) 231 % of control; (dose: 60.0 mg/kg/injection, schedule: Q01DX001 (ip), vehicle: saline) 212 % of control.
For the compound `Cc1c(N)nc(C(CC(N)=O)NCC(N)C(N)=O)nc1C(=O)NC(C(=O)NC(C)C(O)C(C)C(=O)NC(C(=O)NCCc1nc(-c2nc(C(=O)NCCCNCCCc3ccccn3)cs2)cs1)C(C)O)C(OC1OC(CO)C(O)C(O)C1OC1OC(CO)C(O)C(OC(N)=O)C1O)c1cnc[nH]1` (stereo not drawn), the T/C was 93 % of control (dose: 1.5 mg/kg/injection, schedule: Q01DX009 (ip), vehicle: water); 102 % of control (dose: 3.0 mg/kg/injection, schedule: Q01DX009 (ip), vehicle: water); 102 % of control and 105 % of control (dose: 6.0 mg/kg/injection, schedule: Q01DX009 (ip), vehicle: water); 105 % of control and 110 % of control (dose: 12.0 mg/kg/injection, schedule: Q01DX009 (ip), vehicle: water); 100 % of control (dose: 24.0 mg/kg/injection, schedule: Q01DX009 (ip), vehicle: water).

Source of the values: PubChem BioAssay AID192 (DTP/NCI, 2004).
